Test results reported in patent US7052910B2, “Skeletal cell model to screen anti-diabetic compounds” (Council of Scientific and Industrial Research, priority 2001, dated 2006).

Tests used:
[1] = test system: IRS-1; test: Tyrosine phosphorylation and expression of IRS-1 in C2C12 myotubes differentiated in serum free medium without (MF) or with chronic insulin (MFI); immunoblot; assay type: cell-based, mouse
Protocol: (§1) FIG. 5 represents the effect of insulin stimulation on control and chronically insulin-differentiated cells: Cells were stimulated with 100 nm of insulin for 5 min. Cell lysates were run on sodium dodecyl sulphate-7%-polyacrylamide gel electrophoresis (SDS-7%-PAGE) and were immunoblotted with antiphosphotyrosine antibody (A) or anti-IRS-1 antibody (C) or anti-IR-β antibody (E). Cell lysates were immunoprecipitated with antibodies to IRS-1 (B) or IR-β (D) and immunoblotted (IB) with antiphosphotyrosine antibody; and FIG. 6 represents the effect of pioglitazone on tyrosine phosphorylation of IRS-1 and IR-β: Pioglitazone was added at 50 μM concentration during the last day of differentiation for 24 hr. Then, the cells were stimulated with 100 nm of insulin for 5 min. Cell lysate were immunoblotted (IB) with antiphosphotyrosine antibody (A) or α-IRS-1 (B). Cell lysates of the samples prepared the same immunoprecipitated (IP) with antibodies and immunoblotted (IB) with antiphosphotyrosine (C) or anti-IR-β (D) antibodies. C2C12 cells were grown in DMEM (Dulbecco's Modified Eagle Medium) containing 15% FCS (fetal calf serum). The cells were differentiated in serum free medium in the absence or chronic presence of 100 nm insulin. After three days the differentiation was complete. […]

[2] = test system: IR-β; test: Tyrosine phosphorylation and expression of IR-β in C2C12 myotubes differentiated in serum free medium without (MF) or with chronic insulin (MFI); immunoprecipitation and immunoblot; assay type: cell-based, mouse
Protocol: as §1

insulin
ability of IRS-1 to undergo tyrosine phosphorylation in response to insulin ([1]; C2C12 cells differentiated in chronic presence of 100 nm insulin (MFI), FIG. 5B): impaired
tyrosine phosphorylation of IRS-1 (Mr 160–170 kDa protein) ([1]; control (MF) C2C12 myotubes stimulated with 100 nm insulin for 5 min, FIG. 5A): insulin stimulated tyrosine phosphorylation
expression of IR-β ([2]; C2C12 cells differentiated in chronic presence of 100 nm insulin, FIG. 5E): reduced
tyrosine phosphorylation levels of IR ([2]; MFI (chronic 100 nm insulin) versus MF differentiated C2C12 cells, FIG. 5D): Severe reduction
